Test results as given in ChEMBL document CHEMBL3639064, “Piperazine compound capable of inhibiting prostaglandin D synthase” (2014).

molecular target: Hematopoietic prostaglandin D synthase (Homo sapiens, UniProt O60760); assay: Inhibition Assay: The test was carried out according to the method of Urade, Y. et al. (J. Biol. Chem., 262, 3820-3825, (1987)). More specifically, the reaction mixture (49 uL) containing 100 mM Tris-HCl (pH 8.0), 1 mM reduced glutathione, 0.1 mg/mL gamma-globulin, and human H-PGDS (q.s.), and a compound (final concentration: 0.01-100 uM) was preincubated at 25 C. for 5 minutes. Note that a DMSO solution (final concentration: 1%) was added to the solvent control group. Subsequently, 1 uL of [14C] prostaglandin H2 (final concentration: 10 uM) was added to start the reaction. One minute after the start of the reaction, 250 uL of a reaction stopper solution (diethylether/methanol/1 M citric acid (30/4/1) at a temperature of -20 C. was added to stop the reaction. After the reaction was stopped, 50 uL of the upper layer portion (organic solvent phase) was applied to a TLC plate and developed at -20 C. for 45 minutes.
Sequence (O60760 whole entry): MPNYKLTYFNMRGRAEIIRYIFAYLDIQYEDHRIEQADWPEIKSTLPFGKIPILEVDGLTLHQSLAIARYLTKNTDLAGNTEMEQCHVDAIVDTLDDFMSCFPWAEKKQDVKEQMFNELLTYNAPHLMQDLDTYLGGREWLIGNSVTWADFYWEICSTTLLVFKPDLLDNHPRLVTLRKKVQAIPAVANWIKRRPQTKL

| IC50 [nM] | SMILES |
| --- | --- |
| 71 | Cn1cccc1C(=O)N1CCN(C(=O)Nc2ccc(N3CCC(CCn4ccnn4)CC3)cc2)CC1 |
| 37 | Cn1cccc1C(=O)N1CCN(C(=O)Nc2ccc(N3CCC(CCCn4ccnn4)CC3)cc2)CC1 |
| 40 | Cn1cccc1C(=O)N1CCN(C(=O)Nc2ccc(N3CCC(CCn4cccn4)CC3)cc2)CC1 |
| 67 | Cn1cccc1C(=O)N1CCN(C(=O)Nc2ccc(N3CCC(CCn4cncn4)C3)cc2)CC1 (stereo unspecified) |

The next lines start with the compound.

| SMILES | IC50 [nM] |
| --- | --- |
| CN1CCN(C(=O)C2CCN(c3ccc(NC(=O)N4CCN(C(=O)c5cccn5C)CC4)cc3)CC2)CC1 | 60 |
| Cn1cccc1C(=O)N1CCN(C(=O)Nc2ccc(N3CCC(C(=O)NCCN4CCOCC4)CC3)cc2)CC1 | 59 |
| Cn1cccc1C(=O)N1CCN(C(=O)Nc2ccc(N3CCC(CN4CCOCC4)CC3)cc2)CC1 | 54 |
| Cc1nc(C)n(CCC2CCN(c3ccc(NC(=O)N4CCN(C(=O)c5cccn5C)CC4)cc3)CC2)n1 | 85 |
| Cn1cccc1C(=O)N1CCN(C(=O)Nc2ccc(N3CCC(C(=O)N4CCCCC4)CC3)cc2)CC1 | 32 |
| Cn1cccc1C(=O)N1CCN(C(=O)Nc2ccc(N3CCC(C(=O)NCc4cccnc4)CC3)cc2)CC1 | 60 |
| Cn1cccc1C(=O)N1CCN(C(=O)Nc2ccc(N3CCC(CCN4CCOCC4)CC3)cc2)CC1 | 43 |
